As usually defined, the Ki is a measure of affinity in units of concentration, obtained from inhibition or displacement. The low end stands for tighter binding, the high end for weaker binding.

This assay concerns the target cytochrome c oxidase (complex IV) (Bos taurus, UniProt P00396). As to the kind of experiment: spectrophotometric ferrocytochrome c oxidation at […] nm. Format: biochemical.

Consider `S` [sulfide], for which the inhibition constant (Ki) is 0.085 µM.

For the origin of these results see publication PMC5494963 (Chemical research in toxicology, 2011).
